For assay [1], the target named is Beta-2 adrenergic receptor (Rattus norvegicus, UniProt P10608). The experiment in a line: Antagonist activity at beta2 adrenergic receptor in isolated rat stomach fundus. The following applies: read-out: pA2 (converted).
Assay [2] addresses Beta-1 adrenergic receptor (Rattus norvegicus, UniProt P18090). The experiment in a line: Antagonist activity at beta1 adrenergic receptor in isolated rat atria. The following applies: read-out: pA2 (converted).
A short description of assay [3]: Selectivity ratio of beta1 adrenergic receptor in isolated rat atria to beta2 adrenergic receptor in isolated rat stomach fundus.
The subject of assay [4] is Felis catus. The experiment in a line: In vivo antagonist activity at beta1 adrenergic receptor in cat assessed as myocardial activity. The format is functional, organism-based. The following applies: Myocardium, read-out: pA2 (converted).
Assay [5] is filed under the species Felis catus. The experiment in a line: Selectivity ratio of antagonist activity at beta1 adrenergic receptor in cat to antagonist activity at beta2 adrenergic receptor in cat.
The test system of assay [6] is Felis catus. The experiment in a line: In vivo antagonist activity at beta2 adrenergic receptor in cat assessed as vascular activity. The format is organism-based. The following applies: read-out: pA2 (converted).
Assay [7] concerns the target Beta-1 adrenergic receptor (Rattus norvegicus) (UniProt P18090). The assay can be described thus: Agonist activity at beta1 adrenergic receptor in isolated rat atria in presence of propranolol.
Assay [8] addresses Beta-2 adrenergic receptor (Rattus norvegicus) (UniProt P10608). The assay can be described thus: Agonist activity at beta2 adrenergic receptor in isolated rat stomach fundus in presence of propranolol.

The results in this text go back to ChEMBL document CHEMBL3244423, “Cardioselectivity as a function of molecular structure in beta-adrenoceptor blocking agents of the 1-(para-substituted aryloxy)-3-(isopropylamino)propan-2-ol type” (J Med Chem, 1978).

Each structure is given as a SMILES string. Calls of active or inactive are those of the source. The rule behind the calls is not given here.

Sequence of Beta-2 adrenergic receptor (P10608 whole entry): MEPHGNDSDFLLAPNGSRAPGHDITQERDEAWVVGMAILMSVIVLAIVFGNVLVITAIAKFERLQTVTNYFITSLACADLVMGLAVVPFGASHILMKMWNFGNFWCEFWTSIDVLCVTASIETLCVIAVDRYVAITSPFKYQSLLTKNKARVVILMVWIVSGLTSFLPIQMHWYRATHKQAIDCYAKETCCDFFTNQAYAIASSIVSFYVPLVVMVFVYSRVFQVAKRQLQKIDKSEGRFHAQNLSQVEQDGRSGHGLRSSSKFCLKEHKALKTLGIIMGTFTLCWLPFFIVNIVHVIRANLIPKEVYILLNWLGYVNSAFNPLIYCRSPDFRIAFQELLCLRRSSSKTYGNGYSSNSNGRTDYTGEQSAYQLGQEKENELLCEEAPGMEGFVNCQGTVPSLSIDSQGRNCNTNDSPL
Sequence of Beta-1 adrenergic receptor (P18090 whole entry): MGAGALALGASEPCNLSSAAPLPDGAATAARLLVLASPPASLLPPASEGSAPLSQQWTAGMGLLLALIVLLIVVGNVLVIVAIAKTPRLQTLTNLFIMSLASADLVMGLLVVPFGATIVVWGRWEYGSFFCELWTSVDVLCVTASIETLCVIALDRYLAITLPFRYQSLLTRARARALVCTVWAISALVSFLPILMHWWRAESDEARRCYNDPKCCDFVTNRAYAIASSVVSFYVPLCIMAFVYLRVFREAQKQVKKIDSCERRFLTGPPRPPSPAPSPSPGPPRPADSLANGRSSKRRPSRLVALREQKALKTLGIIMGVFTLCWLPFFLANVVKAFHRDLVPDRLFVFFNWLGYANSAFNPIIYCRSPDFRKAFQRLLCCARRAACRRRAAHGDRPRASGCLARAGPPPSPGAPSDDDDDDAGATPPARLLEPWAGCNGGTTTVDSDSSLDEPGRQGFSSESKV
Sequence of Beta-2 adrenergic receptor (Rattus norvegicus) (P10608 whole entry, looked up): as the sequence (P10608 whole entry) above
Sequence of Beta-1 adrenergic receptor (Rattus norvegicus) (P18090 whole entry, looked up): as the sequence (P18090 whole entry) above

With `CCc1ccc(OCC(O)CNC(C)C)cc1` (racemic), the Kb in assay [1] was 0.0316 µM; in assay [2], 0.0631 µM. Moreover, the Selectivity ratio in assay [3] is reported as 0.5.
For `CNC(=O)c1ccc(OCC(O)CNC(C)C)cc1` (racemic) the same measures were 1000 µM, 3.63 µM and 275.
On the same counts, the results for `CC(C)NCC(O)COc1ccc(C(N)=O)cc1` (racemic) are 15.8 µM, 10 µM and 1.6.
Turning to `CC(C)NCC(O)COc1ccc2c(c1)CCCNC2=O` (racemic), the figures for the Kb in assay [1] and in assay [2] were 81.3 µM and 135 µM, respectively. Also, in assay [3], the Selectivity ratio amounted to 0.6.
On the same counts, the results for `CC(C)NCC(O)COc1ccc2c(c1)OCCNC2=O` (racemic) are 45.7 µM, 18.2 µM and 2.5.
For the molecule `CC(C)NCC(O)COc1ccc2c(c1)CCCC(=O)N2` (racemic), the Kb in assay [4] and in assay [6] was 10 µM throughout. For the same molecule, the Selectivity ratio in assay [5] came to 1.
On to `CC(C)NCC(O)COc1ccc2c(c1)OCC(=O)N2` (racemic), for which the Kb in assay [4] is 2.51 µM; in assay [6] it was 3.16 µM. In assay [5], the Selectivity ratio is 1.3.
On to `CCCc1ccc(OCC(O)CNC(C)C)cc1.Cl` (racemic), for which the Kb in assay [1] was 0.158 µM; in assay [2] it was 0.0251 µM. For the same molecule, the Selectivity ratio in assay [3] is given as 6.5.
For `C/C=C/c1ccc(OCC(O)CNC(C)C)c(OC)c1` (racemic) the same measures were 1.26 µM, 0.0501 µM and 25.
On the same counts, the results for `C/C=C\c1ccc(OCC(O)CNC(C)C)c(OC)c1` (racemic) are 0.02 µM, 0.2 µM and 0.1.
With `CC(C)NCC(O)COc1ccc(CC2(C)OCCO2)cc1` (racemic), the outcome in assay [7] and in assay [8] was inactive. The Kb in assay [1] and in assay [2] was more than 316 µM in each case.
Regarding `CC(=O)Nc1ccc(OCC(O)CNC(C)C)cc1` (stereo not given) [PRACTOLOL], the Kb in assay [2] is 0.339 µM.
